Reference: article PMC6158167 (Nature Communications, 2018)

Columns and labels:
ShHTL1 [1] = target: T1, ShHTL1 (Striga hermonthica, UniProt A0A0M4AV81); experiment: SL hydrolysis assay (HPLC), ShHTL1; format: biochemical; conditions: 3.2 μM SL, 1.6 μM enzyme, 30 min, 30 °C
Experimental: (§1) Next, 50 μL of 1 M HCl was added to each reaction solution, and the reaction solutions were extracted 3 times with 300 μL of ethyl acetate. The ethyl acetate layers were combined and dried in vacuo and were then dissolved in 50 μL of methanol. For each layer, 5 μL was applied to the reverse-phase HPLC (Shimadzu LC-2030C). The analytical column was a CAPCELL CORE C18 (Φ 2.1 × 100 mm, Shiseido). The analytes were eluted under gradient conditions at a flow rate of 0.20 mL min^−1 with a linear ramp of methanol to 90% methanol at 19 min, which was maintained for 6 min before resetting to the original conditions. […] The percentage of hydrolyzed SL was calculated and used for statistical analyses. One-tailed unpaired Student’s t-tests were used for comparison between buffer samples and enzyme samples.

ShHTL4 = experiment: SL hydrolysis assay (HPLC), ShHTL4; format: biochemical, Striga hermonthica; conditions: 3.2 μM SL, 1.6 μM enzyme, 30 min, 30 °C
Experimental: as §1

ShD14 [2] = experiment: SL hydrolysis assay (HPLC), ShD14; format: biochemical, Striga hermonthica; conditions: 3.2 μM SL, 1.6 μM enzyme, 30 min, 30 °C
Experimental: as §1

ShHTL7 [3] = target: T2, ShHTL7 (Striga hermonthica, UniProt A0A0M3PNA2); experiment: SL hydrolysis assay (HPLC), ShHTL7; format: biochemical; conditions: 3.2 μM SL, 1.6 μM enzyme, 30 min, 30 °C
T2 sequence (A0A0M3PNA2 1-271): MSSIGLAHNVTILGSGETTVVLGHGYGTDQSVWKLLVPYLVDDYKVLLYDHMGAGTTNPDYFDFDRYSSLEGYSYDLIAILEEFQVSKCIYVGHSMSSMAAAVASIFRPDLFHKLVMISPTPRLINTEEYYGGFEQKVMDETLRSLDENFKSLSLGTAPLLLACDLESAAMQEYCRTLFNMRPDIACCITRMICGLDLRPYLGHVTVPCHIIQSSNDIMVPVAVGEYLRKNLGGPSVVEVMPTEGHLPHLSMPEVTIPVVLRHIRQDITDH
Experimental: as §1

AtHTL = target: T3, AtHTL (Arabidopsis thaliana, UniProt Q9SZU7); conditions: cited from earlier work
T3 sequence (Q9SZU7 1-270): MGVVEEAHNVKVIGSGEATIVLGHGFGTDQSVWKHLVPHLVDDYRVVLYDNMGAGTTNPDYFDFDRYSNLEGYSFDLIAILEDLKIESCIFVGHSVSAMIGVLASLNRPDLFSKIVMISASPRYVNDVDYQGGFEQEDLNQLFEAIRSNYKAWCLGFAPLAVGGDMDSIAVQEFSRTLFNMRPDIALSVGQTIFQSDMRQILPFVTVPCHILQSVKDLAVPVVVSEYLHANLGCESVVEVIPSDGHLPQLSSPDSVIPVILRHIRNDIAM

ShHTL3 [4] = experiment: SL hydrolysis assay (HPLC), ShHTL3; format: biochemical, Striga hermonthica; conditions: 3.2 μM SL, 1.6 μM enzyme, 30 min, 30 °C
Experimental: as §1

ShD14–ShMAX2 interaction = experiment: Y2H assay ShD14-ShMAX2; format: cell-based, Striga hermonthica; conditions: 5 μM ligand
Description: (§2) Full-length sequences of ShD14, ShHTL1, ShHTL3, ShHTL4, ShHTL7, and AtHTL were cloned into the pGBKT7 vector as bait (Clontech), and the coding regions of ShMAX2 and AtMAX2 were cloned into the pGADT7 vector as prey (Clontech). MAX2 was supposed to be unstable without ASK1. Therefore, AtASK1 was cloned into the N terminus of ShMAX2 and AtMAX2 with a 16-residue linker for co-expression. The bait and prey plasmids were co-transformed into the yeast (Saccharomyces cerevisiae) strain Y2HGold (Clontech) by the lithium acetate-mediated method. The presence of both plasmids was confirmed by growth on SD/-Leu/-Trp (-LT) plates. […] The plates were incubated for 5 days at 30 °C.

AtD14 = target: AtD14; parameters: method as in earlier work; conditions: read-out: Kd of rac-GR24 binding to AtD14; quoted in reviewer comment; cited from earlier work
ShHTL7 [5] = target: T2, ShHTL7; experiment: YLG competition assay, WT ShHTL7; format: biochemical
Experimental: (§3) The YLG assays were conducted as previously described[28] with minor modifications. Ten microliters of 0.1 mg mL^−1 ShHTL7 protein in a reaction buffer containing 20 mM HEPES, pH 7.0, 150 mM NaCl and 80 μL of reaction buffer were mixed in a 96-well black plate (Grenier). Ten microliters of 10 μM YLG was added to the solution and incubated at 25 °C for 1 h prior to measurement. The fluorescence intensity was measured using a SpectraMax® iD5 Multi-Mode Microplate Reader (Molecular Devices). Measurements were performed at room temperature under a 480 nm excitation wavelength, a 530 nm emission wavelength, a manual PMT of 500, and a read height of 1.00 mm. The fluorescence can be detected if YLG is hydrolyzed. The RFU (relative fluorescence unit) was calculated by subtracting the fluorescence of the buffer (without protein) and then dividing by the fluorescence of wild-type ShHTL7. […]
(§4) in a previous study6, the enzymes were incubated with YLG at the indicated concentrations. The RFU (relative fluorescence units) was calculated by dividing the fluorescence of hydrolysis at 10 μM YLG by wild type (WT) ShHTL7 after subtracting the fluorescence of the buffer. The Km values were calculated from a Michaelis-Menten plot using GraphPad Prism software and are shown in the plots. […]
(§5) The inhibition constant Ki was calculated according to the Cheng-Prusoff equation7. […]

ShHTL3 [6] = system: ShHTL3; parameters: method as in PMID 27507097; conditions: cited from earlier work
ShHTL7 T190F/C194F [7] = experiment: YLG competition assay, ShHTL7 double mutation; format: biochemical, Striga hermonthica; conditions: from Ki in YLG competition assays
Experimental: as §3, with “ShHTL7. The experiment was repeated 6 times independently.” for “ShHTL7.”
as §4, with “plots. (d) Competition assays with synthetic SL rac-GR24. WT and ShHTL7 protein” for “plots.”
(§6) The inhibition constant Ki was calculated according to the Cheng-Prusoff equation7. Kirac-GR24 values were 0.07 ± 0.01 μM for WT; 0.15 ± 0.04 μM for the T190F/C194F double mutation; and 11.85 ± 3.43 μM for the L124F/T190F/C194F triple mutation as shown in the plots. The experiment was repeated 4 times independently, and each replicate is represented by a black dot.
(§7) The mean values are fitted, and the error bars represent the standard deviation (S.D.) of three replicates (means ± S.D., n=3).

ShHTL7 T190F/C194F [8] = target: ShHTL7 T190F/C194F (Striga hermonthica, UniProt A0A0M3PNA2, C194F/T190F); experiment: YLG competition assay, ShHTL7 double mutation; format: biochemical
Experimental: as §3, with “ShHTL7. The experiment was repeated 6 times independently.” for “ShHTL7.”
as §4, with “plots. (d) Competition assays with synthetic SL rac-GR24. WT and ShHTL7 protein” for “plots.”
as §6, §7

[9] = system: ShHTL7–ShMAX2 interaction; experiment: Y2H assay ShHTL7-ShMAX2; format: cell-based, Striga hermonthica; conditions: 5 μM ligand
Description: as §2

ShMAX2 and ShHTL4 = experiment: In vitro pull-down ShHTL4-ShMAX2; format: binding, Striga hermonthica; conditions: 50 μM ligand, CBB staining
Experimental: (§8) Ni-NTA pull-down assays were performed with purified ShMAX2 or AtMAX2 as the bait and […]14, or GST-AtD14 as the prey. The molecular weight of the HTL/D14 proteins is nearly the same as that of ASK1; therefore, the HTL/D14 proteins were fused to GST, increasing their molecular weight for detection on SDS-PAGE gels. […] The protein complexes were then eluted with 100 μL of elution buffer containing 50 mM Bis-Tris, pH 6.8, 500 mM NaCl, and 500 mM imidazole and subjected to SDS-PAGE analysis.

ShHTL1 [10] = target: T1, ShHTL1; experiment: ITC binding to ShHTL1; conditions: 750 μM ShHTL1 into 100 μM rac-GR24, 20 °C
Experimental: The binding assays were performed using a MicroCal iTC200 isothermal titration calorimeter (GE Healthcare). Prior to the ITC experiments, concentrated ShD14, ShHTL1, ShHTL4, and ShHTL7 were exchanged into a buffer consisting of 20 mM HEPES (pH 8.0) and 150 mM NaCl to remove dithiothreitol and were then adjusted to a final concentration of 150 μM. The sample cell was filled with protein solution (204 μL). Nineteen consecutive 2.0-μL aliquots of 3 mM KAR1 (3-methyl-2H-furo [2,3-c] pyran-2-one) were injected into a prepared protein solution at 150 s intervals at 20 °C. The first injection volume was 0.4 μL, and the observed thermal peak was excluded from the data analysis. A negative control was obtained by titrating 3 mM KAR1 into the buffer (20 mM HEPES, pH 8.0, 150 mM NaCl) in the same manner. Data fitting was performed in “one set of sites” mode, and KD values were calculated using Origin software provided by MicroCal.
Binding analyses of ShHTLs and ShD14 with KAR1. The ITC assays were performed by adding 3 mM KAR1 to 150 μM ShHTL1 (a), ShHTL4 (b), ShHTL7
(c), ShD14 (d) and AtHTL (e).
ShHTL1 and AtHTL were fitted using the MicroCal origin software with the “one binding site” model.

ShHTL7 L124F/T190F/C194F = ShHTL7 L124F/T190F/C194F (Striga hermonthica, UniProt A0A0M3PNA2, C194F/L124F/T190F); experiment: YLG competition assay, ShHTL7 triple mutation; format: biochemical
Experimental: as §3, §4, §5

ShMAX2 and ShD14 = experiment: In vitro pull-down ShD14-ShMAX2; format: binding, Striga hermonthica; conditions: 50 μM ligand, CBB staining
Experimental: as §8

ShD14 [11] = experiment: YLG hydrolysis assay, ShD14; format: biochemical, Striga hermonthica; conditions: fluorescence, repeated YLG hydrolysis assays
Experimental: The YLG assays were conducted as previously described[28] with minor modifications. […] The fluorescence intensity was measured using a SpectraMax® iD5 Multi-Mode Microplate Reader (Molecular Devices). Measurements were performed at room temperature under a 480 nm excitation wavelength, a 530 nm emission wavelength, a manual PMT of 500, and a read height of 1.00 mm. The fluorescence can be detected if YLG is hydrolyzed. […] The experiment was repeated 6 times independently. page 4: Supplementary Figure 4. YLG hydrolysis assays of OsD14 and ShD14. RFU (relative fluorescence units) was calculated by dividing the fluorescence of OsD14. The fluorescence can be detected under a 490 nm excitation wavelength and a 520 nm emission wavelength if YLG is hydrolyzed. The experiments were repeated 4 (OsD14) or 6 times independently. Columns represent the mean RFU, and the error bars represent the standard deviation (S.D.). Each replicate is indicated by a black circle.

ShD14 [12] = system: ShD14; parameters: method as in PMID 26293962; conditions: cited from earlier work
[13] = target: PYR1 in complex with co-receptor TYPE 2C PROTEIN PHOSPHATASE (PP2C); parameters: method as in PMID 21847091; conditions: cited from earlier work
[…] 1 (PYR1) = target: […] 1 (PYR1); parameters: method as in PMID 21847091; conditions: read-out: KD of PYR1 for ABA; cited from earlier work

T1 sequence (A0A0M4AV81 entry or part of it): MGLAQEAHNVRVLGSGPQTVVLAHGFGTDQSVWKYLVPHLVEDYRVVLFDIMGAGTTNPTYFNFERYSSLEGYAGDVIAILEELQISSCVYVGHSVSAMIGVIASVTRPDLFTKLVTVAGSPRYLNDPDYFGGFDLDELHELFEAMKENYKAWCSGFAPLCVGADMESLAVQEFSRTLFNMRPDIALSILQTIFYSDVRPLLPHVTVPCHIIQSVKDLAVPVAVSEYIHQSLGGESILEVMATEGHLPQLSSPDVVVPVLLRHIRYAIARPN
Chain of ShHTL7 L124F/T190F/C194F (A0A0M3PNA2 whole entry L124F/T190F/C194F): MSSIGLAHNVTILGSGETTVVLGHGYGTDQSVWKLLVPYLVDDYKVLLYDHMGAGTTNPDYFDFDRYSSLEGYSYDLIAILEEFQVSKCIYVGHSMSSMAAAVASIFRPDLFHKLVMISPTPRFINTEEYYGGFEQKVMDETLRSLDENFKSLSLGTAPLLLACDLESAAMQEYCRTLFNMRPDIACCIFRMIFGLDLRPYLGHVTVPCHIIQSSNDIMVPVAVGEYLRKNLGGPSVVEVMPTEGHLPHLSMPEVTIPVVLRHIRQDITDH
Chain of ShHTL7 T190F/C194F (Striga hermonthica, UniProt A0A0M3PNA2, C194F/T190F) (A0A0M3PNA2 whole entry T190F/C194F): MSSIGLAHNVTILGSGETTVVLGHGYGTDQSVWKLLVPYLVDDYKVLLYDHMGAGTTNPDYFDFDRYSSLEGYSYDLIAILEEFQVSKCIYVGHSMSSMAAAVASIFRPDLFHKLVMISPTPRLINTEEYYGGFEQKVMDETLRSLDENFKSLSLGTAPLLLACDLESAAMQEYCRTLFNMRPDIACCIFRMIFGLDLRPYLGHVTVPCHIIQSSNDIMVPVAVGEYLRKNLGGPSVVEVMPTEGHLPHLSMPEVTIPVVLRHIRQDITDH

Compound: CC1=CC(OC=C2C(=O)OC3C4=C(CCCC4(C)C)CC23)OC1=O (stereo not drawn) [5DS, 5-deoxystrigol]
- hydrolytic activity of ShHTL1 toward SL (ShHTL1 [1]): weak 5DS hydrolytic activity
- hydrolytic activity of ShHTL4 toward SL (ShHTL4): able to hydrolyze
- hydrolytic activity of ShD14 toward SL (ShD14 [2]): able to hydrolyze
- hydrolytic activity of ShHTL7 toward SL (ShHTL7 [3]): able to hydrolyze

Compound: CC1=C[C@H](O/C=C2/C(=O)O[C@@H]3c4ccccc4C[C@H]23)OC1=O [GR24^ent−5DS]
- hydrolysis of GR24^ent−5DS by AtHTL (AtHTL): able to hydrolyze GR24^ent−5DS

Compound: CC1=CC(O/C=C2/C(=O)OC3c4ccccc4CC23)OC1=O (racemic) [rac-GR24]
- hydrolytic activity of ShHTL3 toward SL (ShHTL3 [4]): no hydrolytic activity
- hydrolytic activity of ShHTL1 toward SL (ShHTL1 [1]): no hydrolytic activity
- ligand-induced ShD14-ShMAX2 interaction (ShD14–ShMAX2 interaction): rac-GR24-dependent ShD14–ShMAX2 interaction was also observed
- Kd (AtD14): 300 nM
- hydrolytic activity of ShHTL4 toward SL (ShHTL4): able to hydrolyze
- IC50 (ShHTL7 [5]): 170 ± 10 nM
- Ki (ShHTL7 [5]): 70 ± 10 nM
- binding of rac-GR24 to ShHTL3 (ShHTL3 [6]): can bind to KAR1 but not rac-GR24
- decrease in rac-GR24 binding affinity, T190F/C194F vs ShHTL7 (ShHTL7 T190F/C194F [7]): twofold decrease
- IC50 (ShHTL7 T190F/C194F [8]): 210 ± 50 nM
- Ki (ShHTL7 T190F/C194F [8]): 150 ± 40 nM
- ligand-induced ShHTL7-ShMAX2 interaction [9]: triggered the interaction of ShHTL7 with ShMAX2
- ligand-dependent ShMAX2-ShHTL4 interaction (ShMAX2 and ShHTL4): able to interact with ShHTL4 of the divergent clade in the presence of rac-GR24
- binding of rac-GR24 to ShHTL1 (ShHTL1 [10]): no detectable binding
- hydrolytic activity of ShD14 toward SL (ShD14 [2]): able to hydrolyze
- IC50 (ShHTL7 L124F/T190F/C194F): 13900 ± 3410 nM
- Ki (ShHTL7 L124F/T190F/C194F): 11800 ± 3430 nM
- hydrolytic activity of ShHTL7 toward SL (ShHTL7 [3]): able to hydrolyze
- ligand-dependent ShMAX2-ShD14 interaction (ShMAX2 and ShD14): direct interaction was detected between ShMAX2 and ShD14 in a rac-GR24-dependent manner
- hydrolysis of rac-GR24 by AtHTL (AtHTL): able to hydrolyze rac-GR24 to some extent

Compound: CCOC(=O)c1ccccc1-c1c2ccc(=O)cc-2oc2cc(OC3C=CC(=O)O3)ccc12 (stereo not drawn) [dYLG, desmethyl-YLG]
- hydrolysis of dYLG by AtHTL (AtHTL): hydrolyze the synthesized desmethyl-YLG (dYLG)

Compound: CCOC(=O)c1ccccc1-c1c2ccc(=O)cc-2oc2cc(OC3C=C(C)C(=O)O3)ccc12 (stereo not drawn) [YLG, Yoshimulactone Green]
- hydrolysis of YLG by ShD14 (ShD14 [11]): not YLG
- hydrolytic activity of ShD14 toward YLG, previous study (ShD14 [12]): no hydrolytic activity toward YLG

Compound: CC1=CC(=O)CC(C)(C)[C@@]1(O)/C=C/C(C)=C\C(=O)O [ABA, abscisic acid]
- binding affinities for ABA, PYR1-PP2C complex [13]: nanomolar range
- Kd ([…] 1 (PYR1)): 97000 nM
